{
  "source": "PubChem BioAssay (NCI)",
  "assay_in_all_cases": "NCI tumour cell line growth inhibition, 48 h",
  "key": {"OVCAR-3 ovarian": {"test_system": "OVCAR-3 ovarian"}, "LOX IMVI melanoma": {"test_system": "LOX IMVI melanoma"}, "NCI/ADR-RES ovarian": {"test_system": "NCI/ADR-RES ovarian"}, "SN12C renal": {"test_system": "SN12C renal"}, "M19-MEL melanoma": {"test_system": "M19-MEL melanoma"}, "SK-OV-3 ovarian": {"test_system": "SK-OV-3 ovarian"}, "SF-539 CNS": {"test_system": "SF-539 CNS"}, "DMS 273 small cell lung": {"test_system": "DMS 273 small cell lung"}, "HOP-92 NSCLC": {"test_system": "HOP-92 NSCLC"}, "HL-60(TB) leukemia": {"test_system": "HL-60(TB) leukemia"}, "SK-MEL-2 melanoma": {"test_system": "SK-MEL-2 melanoma"}, "NCI-H23 lung": {"test_system": "NCI-H23 lung"}, "SNB-75 CNS": {"test_system": "SNB-75 CNS"}, "NCI-H226 lung": {"test_system": "NCI-H226 lung"}, "RXF 393 renal": {"test_system": "RXF 393 renal"}, "COLO 205 colon": {"test_system": "COLO 205 colon"}, "OVCAR-8 ovarian": {"test_system": "OVCAR-8 ovarian"}, "HOP-18 NSCLC": {"test_system": "HOP-18 NSCLC"}, "A498 renal": {"test_system": "A498 renal"}, "SF-268 CNS": {"test_system": "SF-268 CNS"}, "EKVX NSCLC": {"test_system": "EKVX NSCLC"}, "K-562 leukemia": {"test_system": "K-562 leukemia"}, "XF 498 CNS": {"test_system": "XF 498 CNS"}, "KM20L2 colon": {"test_system": "KM20L2 colon"}, "MCF7 breast": {"test_system": "MCF7 breast"}, "MOLT-4 leukemia": {"test_system": "MOLT-4 leukemia"}, "HCC-2998 colon": {"test_system": "HCC-2998 colon"}, "NCI-H522 lung": {"test_system": "NCI-H522 lung"}, "HCT-15 colon": {"test_system": "HCT-15 colon"}, "A549 NSCLC": {"test_system": "A549 NSCLC"}, "UACC-257 melanoma": {"test_system": "UACC-257 melanoma"}, "DLD-1 colon": {"test_system": "DLD-1 colon"}, "CAKI-1 renal": {"test_system": "CAKI-1 renal"}, "P388/ADR leukemia": {"test_system": "P388/ADR leukemia"}, "MALME-3M melanoma": {"test_system": "MALME-3M melanoma"}, "IGROV1 ovarian": {"test_system": "IGROV1 ovarian"}, "RPMI-8226 leukemia": {"test_system": "RPMI-8226 leukemia"}, "UACC-62 melanoma": {"test_system": "UACC-62 melanoma"}, "KM12 colon": {"test_system": "KM12 colon"}, "DMS 114 small cell lung": {"test_system": "DMS 114 small cell lung"}, "SNB-19 CNS": {"test_system": "SNB-19 CNS"}, "NCI-H460 lung": {"test_system": "NCI-H460 lung"}, "SN12K1 renal": {"test_system": "SN12K1 renal"}, "OVCAR-4 ovarian": {"test_system": "OVCAR-4 ovarian"}, "HOP-62 NSCLC": {"test_system": "HOP-62 NSCLC"}, "SNB-78 CNS": {"test_system": "SNB-78 CNS"}, "SF-295 CNS": {"test_system": "SF-295 CNS"}, "SK-MEL-28 melanoma": {"test_system": "SK-MEL-28 melanoma"}, "P388 leukemia": {"test_system": "P388 leukemia"}, "U251 CNS": {"test_system": "U251 CNS"}, "CCRF-CEM leukemia": {"test_system": "CCRF-CEM leukemia"}, "SK-MEL-5 melanoma": {"test_system": "SK-MEL-5 melanoma"}, "OVCAR-5 ovarian": {"test_system": "OVCAR-5 ovarian"}, "SW-620 colon": {"test_system": "SW-620 colon"}, "HCT-116 colon": {"test_system": "HCT-116 colon"}, "HT29 colon": {"test_system": "HT29 colon"}, "UO-31 renal": {"test_system": "UO-31 renal"}},
  "note": "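A five-concentration, 48-hour dose response in 96-well plates underlies each endpoint, interpolated linearly between surrounding concentrations. TGI is the concentration that stops growth completely.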",
  "data": [
    {"smiles": "CCCNC1=C(C)C(=O)C2=C(C1=O)[C@H](COC(N)=O)[C@]1(OC)[C@@H]3N[C@@H]3CN21", "values": [
      {"measurement": "TGI", "setting": "OVCAR-3 ovarian", "result": 55.3, "unit": "µM"},
      {"measurement": "TGI", "setting": "LOX IMVI melanoma", "result": 19.1, "unit": "µM"},
      {"measurement": "TGI", "setting": "NCI/ADR-RES ovarian", "result": 300, "unit": "µM"},
      {"measurement": "TGI", "setting": "SN12C renal", "result": 69.2, "unit": "µM"},
      {"measurement": "TGI", "setting": "M19-MEL melanoma", "result": 27.3, "unit": "µM"},
      {"measurement": "TGI", "setting": "SK-OV-3 ovarian", "result": 170, "unit": "µM"},
      {"measurement": "TGI", "setting": "SF-539 CNS", "result": 45.3, "unit": "µM"},
      {"measurement": "TGI", "setting": "DMS 273 small cell lung", "result": 15.8, "unit": "µM"},
      {"measurement": "TGI", "setting": "HOP-92 NSCLC", "result": 43.9, "unit": "µM"},
      {"measurement": "TGI", "setting": "HL-60(TB) leukemia", "result": 19.4, "unit": "µM"},
      {"measurement": "TGI", "setting": "SK-MEL-2 melanoma", "result": 34.3, "unit": "µM"},
      {"measurement": "TGI", "setting": "NCI-H23 lung", "result": 12.5, "unit": "µM"},
      {"measurement": "TGI", "setting": "SNB-75 CNS", "result": 24.6, "unit": "µM"},
      {"measurement": "TGI", "setting": "NCI-H226 lung", "result": 34, "unit": "µM"},
      {"measurement": "TGI", "setting": "RXF 393 renal", "result": 46.4, "unit": "µM"},
      {"measurement": "TGI", "setting": "COLO 205 colon", "result": 45, "unit": "µM"},
      {"measurement": "TGI", "setting": "OVCAR-8 ovarian", "result": 53, "unit": "µM"},
      {"measurement": "TGI", "setting": "HOP-18 NSCLC", "result": 53.4, "unit": "µM"},
      {"measurement": "TGI", "setting": "A498 renal", "result": 13.6, "unit": "µM"},
      {"measurement": "TGI", "setting": "SF-268 CNS", "result": 77.9, "unit": "µM"},
      {"measurement": "TGI", "setting": "EKVX NSCLC", "result": 27.4, "unit": "µM"},
      {"measurement": "TGI", "setting": "K-562 leukemia", "result": 174, "unit": "µM"},
      {"measurement": "TGI", "setting": "XF 498 CNS", "result": 15.3, "unit": "µM"},
      {"measurement": "TGI", "setting": "KM20L2 colon", "result": 121, "unit": "µM"},
      {"measurement": "TGI", "setting": "MCF7 breast", "result": 4.15, "unit": "µM"},
      {"measurement": "TGI", "setting": "MOLT-4 leukemia", "result": 31.3, "unit": "µM"},
      {"measurement": "TGI", "setting": "HCC-2998 colon", "result": 20.6, "unit": "µM"},
      {"measurement": "TGI", "setting": "NCI-H522 lung", "result": 12.5, "unit": "µM"},
      {"measurement": "TGI", "setting": "HCT-15 colon", "result": 72, "unit": "µM"},
      {"measurement": "TGI", "setting": "A549 NSCLC", "result": 8.69, "unit": "µM"},
      {"measurement": "TGI", "setting": "UACC-257 melanoma", "result": 38.9, "unit": "µM"},
      {"measurement": "TGI", "setting": "DLD-1 colon", "result": 79.9, "unit": "µM"},
      {"measurement": "TGI", "setting": "CAKI-1 renal", "result": 84.5, "unit": "µM"},
      {"measurement": "TGI", "setting": "P388/ADR leukemia", "result": 54.7, "unit": "µM"},
      {"measurement": "TGI", "setting": "MALME-3M melanoma", "result": 26.5, "unit": "µM"},
      {"measurement": "TGI", "setting": "IGROV1 ovarian", "result": 33.3, "unit": "µM"},
      {"measurement": "TGI", "setting": "RPMI-8226 leukemia", "result": 73.9, "unit": "µM"},
      {"measurement": "TGI", "setting": "UACC-62 melanoma", "result": 5.74, "unit": "µM"},
      {"measurement": "TGI", "setting": "KM12 colon", "result": 56.1, "unit": "µM"},
      {"measurement": "TGI", "setting": "DMS 114 small cell lung", "result": 59, "unit": "µM"},
      {"measurement": "TGI", "setting": "SNB-19 CNS", "result": 45.4, "unit": "µM"},
      {"measurement": "TGI", "setting": "NCI-H460 lung", "result": 4.17, "unit": "µM"},
      {"measurement": "TGI", "setting": "SN12K1 renal", "result": 44.1, "unit": "µM"},
      {"measurement": "TGI", "setting": "OVCAR-4 ovarian", "result": 19.3, "unit": "µM"},
      {"measurement": "TGI", "setting": "HOP-62 NSCLC", "result": 4.42, "unit": "µM"},
      {"measurement": "TGI", "setting": "SNB-78 CNS", "result": 158, "unit": "µM"},
      {"measurement": "TGI", "setting": "SF-295 CNS", "result": 39.7, "unit": "µM"},
      {"measurement": "TGI", "setting": "SK-MEL-28 melanoma", "result": 87.8, "unit": "µM"},
      {"measurement": "TGI", "setting": "P388 leukemia", "result": 39.2, "unit": "µM"},
      {"measurement": "TGI", "setting": "U251 CNS", "result": 40.6, "unit": "µM"},
      {"measurement": "TGI", "setting": "CCRF-CEM leukemia", "result": 185, "unit": "µM"},
      {"measurement": "TGI", "setting": "SK-MEL-5 melanoma", "result": 2.65, "unit": "µM"},
      {"measurement": "TGI", "setting": "OVCAR-5 ovarian", "result": 92.4, "unit": "µM"},
      {"measurement": "TGI", "setting": "SW-620 colon", "result": 113, "unit": "µM"},
      {"measurement": "TGI", "setting": "HCT-116 colon", "result": 32.2, "unit": "µM"},
      {"measurement": "TGI", "setting": "HT29 colon", "result": 94.3, "unit": "µM"},
      {"measurement": "TGI", "setting": "UO-31 renal", "result": 67.3, "unit": "µM"}
    ]}
  ]
}
